In patent US20060063759A1, “Tricyclic steroid hormone nuclear receptor modulators” (priority 2002, published 2006):

Columns and labels:
glucocorticoid receptor = biological target: T1, glucocorticoid receptor (Homo sapiens, UniProt P04150); assay: Glucocorticoid Receptor Binding Assay ([3H]-dexamethasone, A549 cell extract); conditions: [3H]-dexamethasone binding, read-out: GR Ki
T1 construct: containing 50-200 ug of A549 cell extract and 1.86 nM [^3H]-dexamethasone; host or cells: A549 human lung epithelial cells (sonicated cell extract)
T1 sequence (P04150 1-777): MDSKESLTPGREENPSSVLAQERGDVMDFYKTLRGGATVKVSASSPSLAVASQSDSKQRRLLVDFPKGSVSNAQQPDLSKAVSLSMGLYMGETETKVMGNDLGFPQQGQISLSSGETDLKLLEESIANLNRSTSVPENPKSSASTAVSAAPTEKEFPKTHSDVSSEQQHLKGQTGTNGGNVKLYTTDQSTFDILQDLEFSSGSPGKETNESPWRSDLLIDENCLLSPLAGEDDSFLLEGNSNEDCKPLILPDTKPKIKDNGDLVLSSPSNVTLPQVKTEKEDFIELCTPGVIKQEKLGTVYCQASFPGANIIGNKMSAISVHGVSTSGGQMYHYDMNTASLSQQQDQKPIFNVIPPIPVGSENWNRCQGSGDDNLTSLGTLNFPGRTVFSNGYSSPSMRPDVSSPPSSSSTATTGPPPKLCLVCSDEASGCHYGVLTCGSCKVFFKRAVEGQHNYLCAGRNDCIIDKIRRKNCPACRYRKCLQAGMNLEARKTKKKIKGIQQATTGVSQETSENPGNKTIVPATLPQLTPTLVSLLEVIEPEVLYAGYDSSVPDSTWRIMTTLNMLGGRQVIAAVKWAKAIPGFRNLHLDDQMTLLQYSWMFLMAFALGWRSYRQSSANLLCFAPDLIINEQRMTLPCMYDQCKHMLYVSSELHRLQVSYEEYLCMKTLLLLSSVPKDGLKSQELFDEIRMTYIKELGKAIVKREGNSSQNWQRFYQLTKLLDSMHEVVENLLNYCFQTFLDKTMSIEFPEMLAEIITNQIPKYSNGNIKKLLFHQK
In short: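 Displacement of [3H]-dexamethasone (1.86 nM) from glucocorticoid receptor in sonicated A549 lung epithelial cell extracts, 16 h at 4 °C, pH 7.2 molybdate-containing buffer. Bound radioactivity was scintillation-counted after charcoal/dextran stripping of free ligand.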

human MR = biological target: T2, human MR (Homo sapiens, UniProt P08235); assay: Mineralocorticoid Receptor Binding Assay ([3H]-aldosterone); conditions: [3H]-aldosterone binding, human MR expressed in Sf9 cells; read-out: MR Ki
T2 construct: The full length human MR gene is cloned from a human kidney or human brain cDNA library; His tag from the pAcHLT vector (own knowledge); made in house; host or cells: Sf9 insect cells (baculovirus, pAcHLT transfer vector)
T2 sequence (P08235 1-984): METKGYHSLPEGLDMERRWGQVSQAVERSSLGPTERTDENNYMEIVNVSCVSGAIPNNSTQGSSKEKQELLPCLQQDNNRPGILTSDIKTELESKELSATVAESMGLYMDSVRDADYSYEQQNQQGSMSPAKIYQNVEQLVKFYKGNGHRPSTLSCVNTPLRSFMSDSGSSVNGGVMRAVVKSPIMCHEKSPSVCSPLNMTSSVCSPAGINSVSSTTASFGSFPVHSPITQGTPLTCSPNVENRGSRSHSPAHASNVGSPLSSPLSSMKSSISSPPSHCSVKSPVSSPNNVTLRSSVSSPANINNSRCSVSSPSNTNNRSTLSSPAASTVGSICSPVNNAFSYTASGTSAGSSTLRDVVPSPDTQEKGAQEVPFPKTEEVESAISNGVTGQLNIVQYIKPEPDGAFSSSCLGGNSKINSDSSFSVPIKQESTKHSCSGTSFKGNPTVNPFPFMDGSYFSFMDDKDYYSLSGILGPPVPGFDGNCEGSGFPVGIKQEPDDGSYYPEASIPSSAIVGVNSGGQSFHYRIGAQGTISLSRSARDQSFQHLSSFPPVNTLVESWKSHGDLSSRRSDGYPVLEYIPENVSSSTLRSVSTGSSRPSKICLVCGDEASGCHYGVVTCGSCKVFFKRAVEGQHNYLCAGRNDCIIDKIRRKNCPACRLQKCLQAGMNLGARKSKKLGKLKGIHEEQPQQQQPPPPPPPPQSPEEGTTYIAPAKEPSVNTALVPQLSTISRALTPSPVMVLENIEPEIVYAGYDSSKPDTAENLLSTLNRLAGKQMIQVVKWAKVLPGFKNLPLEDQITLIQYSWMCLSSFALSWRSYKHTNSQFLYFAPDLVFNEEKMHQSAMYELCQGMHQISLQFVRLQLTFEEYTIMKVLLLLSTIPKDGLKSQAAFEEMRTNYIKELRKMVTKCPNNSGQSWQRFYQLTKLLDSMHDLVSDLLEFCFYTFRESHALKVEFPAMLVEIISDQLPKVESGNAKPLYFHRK
In short: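 Receptor source: freeze-thaw lysate of baculovirus-infected Sf9 cells carrying full-length human MR, 20-25 μg protein. Incubation ~16 h at 4 °C with shaking, pH 7.5 buffer containing 30 mM sodium molybdate and 10% glycerol.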

| Compound | Ki (glucocorticoid receptor) [µM] | Ki (human MR) [µM] |
| --- | --- | --- |
| Fc1ccc2c(c1)CCc1ncccc1/C2=C/c1cccc(C(F)(F)F)c1 [Example 590] | < 1 | < 0.5 |
| N#Cc1ccc2c(n1)CCc1cc(F)ccc1/C2=C\c1ccc2[nH]c(=O)[nH]c2c1 [Example 591] | < 10 | < 0.5 |
| CC(C)n1c(=O)[nH]c2cc(/C=C3\c4ccc(F)cc4CCc4ncccc43)ccc21 [Example 592] | < 10 | < 0.5 |
| O=c1[nH]c2cc(/C=C3\c4ccc(F)cc4CCc4ncccc43)ccc2n1C1CC1 [Example 593] | < 10 | < 0.5 |
| CS(=O)(=O)Nc1cc(F)cc(/C=C2/c3ccc(F)cc3CCc3nc(C(F)F)ccc32)c1 [Example 594] | < 0.5 | < 0.5 |
| CS(=O)(=O)Nc1cc(F)cc(/C=C2\c3ccc(F)cc3CCc3nc(C(F)F)ccc32)c1 [Example 595] | < 0.5 | < 0.5 |
| O=c1[nH]c2cc(/C=C3\c4ccc(F)cc4CCc4ncccc43)ccc2n1CCN1CCOCC1 [Example 596] | < 10 | < 0.5 |
| CS(=O)(=O)Nc1cc(F)cc(/C=C2\c3ccc(F)cc3CCc3nc(CF)ccc32)c1 [Example 597] | < 0.5 | < 0.5 |
| CS(=O)(=O)Nc1cc(F)cc(/C=C2/c3ccc(F)cc3CCc3nc(CF)ccc32)c1 [Example 598] | < 0.5 | < 0.5 |
| CS(=O)(=O)Nc1cccc(C=C2c3ccccc3C3CC3c3ccccc32)c1 (stereo not drawn) [Example 602] | < 0.5 | < 0.5 |
| Nc1cccc(C=C2c3ccccc3[C@H]3C[C@H]3c3ccccc32)c1 [Example 604] | < 1 | < 0.5 |
| O=c1[nH]c2cc(C=C3c4ccccc4C4CC4c4ccccc43)ccc2s1 (stereo not drawn) [Example 605] | < 0.5 | < 0.5 |
| O=c1[nH]c2cc(C=C3c4ccccc4[C@H]4C[C@H]4c4ccccc43)ccc2o1 [Example 606] | < 0.5 | < 0.5 |
| O=c1[nH]c2cc(/C=C3\c4ccccc4COc4cc(F)ccc43)ccc2n1CCN1CCOCC1 [Example 607, 5-(3-Fluoro-6H-dibenzo[b,e]oxepin-11-ylidenemethyl)-1-(2-morpholin-4-yl-ethyl)-1,3-dihydro-benzoimidazol-2-one] | < 1 | < 0.5 |
| O=c1[nH]c2cc(/C=C3\c4ccccc4COc4cc(F)ccc43)ccc2n1CCCN1CCOCC1 [Example 608, 5-(3-fluoro-6H-dibenzo[b,e]oxepin-11-ylidenemethyl)-1-(3-morpholin-4-yl-propyl)-1,3-dihydro-benzoimidazol-2-one] | < 10 | < 0.5 |
| O=c1[nH]c2cc(/C=C3\c4ccccc4COc4cc(F)ccc43)ccc2n1C1CC1 [Example 609, 1-cyclopropyl-5-(3-fluoro-6H-dibenzo[b,e]oxepin-11-ylidenemethyl)-1,3-dihydro-benzoimidazol-2-one] | < 1 | < 0.5 |
| CC(C)n1c(=O)[nH]c2cc(/C=C3\c4ccccc4COc4cc(F)ccc43)ccc21 [Example 612, 5-(3-Fluoro-6H-dibenzo[b,e]oxepin-11-ylidenemethyl)-1-isopropyl-1,3-dihydro-benzoimidazol-2-one] | < 10 | < 0.5 |
| O=c1[nH]c2ccc(/C=C3\c4ccc(F)cc4COc4cc(F)ccc43)cc2[nH]1 [Example 613, 5-(3,8-Difluoro-6H-dibenzo[b,e]oxepin-11-ylidenemethyl)-1,3-dihydro-benzoimidazol-2-one] | < 0.5 | < 0.5 |
| O=c1[nH]c2ccc(/C=C3\c4ccccc4COc4cc(Cl)ccc43)cc2[nH]1 [Example 614, 5-(3-Chloro-6H-dibenzo[b,e]oxepin-11-ylidenemethyl)-1,3-dihydro-benzoimidazol-2-one] | < 1 | < 0.5 |
| O=c1[nH]c2cc(/C=C3\c4ccc(F)cc4COc4cc(F)ccc43)ccc2n1CCN1CCOCC1 [Example 617, 5-(3,8-Difluoro-6H-dibenzo[b,e]oxepin-11-ylidenemethyl)-1-(2-morpholin-4-yl-ethyl)-1,3-dihydro-benzoimidazol-2-one] | < 0.5 | < 0.5 |

| Compound | Ki (glucocorticoid receptor) [µM] | Ki (human MR) [µM] |
| --- | --- | --- |
| O=c1[nH]c2cc(/C=C3/c4ccccc4COc4ccccc43)ccc2o1 [Example 619] | < 0.5 | < 0.5 |
| O=c1[nH]c2cc(/C=C3\c4ccccc4COc4ccccc43)ccc2o1 [Example 620] | < 0.5 | < 0.5 |
| CS(=O)(=O)Nc1cccc(/C=C2/c3ccccc3OCc3c(Cl)cccc32)c1 [Example 622] | < 10 | < 0.5 |
| CS(=O)(=O)Nc1cc(F)cc(/C=C2\c3ccc(Cl)cc3COc3ccccc32)c1 [Example 623] | < 0.5 | < 0.5 |
| CS(=O)(=O)Nc1cc(F)cc(/C=C2/c3ccc(Cl)cc3COc3ccccc32)c1 [Example 624] | < 0.5 | < 0.5 |
| O=c1[nH]c2ccc(C=C3c4ccccc4COc4ccccc43)cc2[nH]1 [Example 626] | < 10 | < 0.5 |
| Oc1cccc(/C=C2/c3ccccc3COc3cc(F)ccc32)c1 [Example 627] | < 0.5 | < 0.5 |
| Oc1cccc(/C=C2\c3ccccc3COc3cc(F)ccc32)c1 [Example 628] | < 0.5 | < 0.5 |
| CS(=O)(=O)Nc1cccc(/C=C2/c3ccccc3COc3cc(F)ccc32)c1 [Example 629] | < 0.5 | < 0.5 |
| CS(=O)(=O)Nc1cccc(/C=C2\c3ccccc3COc3cc(F)ccc32)c1 [Example 630] | < 0.5 | < 0.5 |
| O=c1[nH]c2cc(/C=C3/c4ccccc4COc4cc(F)ccc43)ccc2o1 [Example 632] | < 0.5 | < 0.5 |
| O=c1[nH]c2cc(/C=C3\c4ccccc4COc4cc(F)ccc43)ccc2o1 [Example 633] | < 0.5 | < 0.5 |
| Cn1c(=O)[nH]c2cc(/C=C3/c4ccccc4COc4cc(F)ccc43)ccc21 [Example 634] | < 0.5 | < 0.5 |
| Cn1c(=O)[nH]c2cc(/C=C3\c4ccccc4COc4cc(F)ccc43)ccc21 [Example 635] | < 1 | < 0.5 |
| O=c1[nH]c2cc(/C=C3/c4ccccc4COc4cc(F)ccc43)ccc2s1 [Example 636] | < 0.5 | < 0.5 |
| O=c1[nH]c2cc(/C=C3\c4ccccc4COc4cc(F)ccc43)ccc2s1 [Example 637] | < 0.5 | < 0.5 |
| CC(C)n1c(=O)[nH]c2cc(/C=C3/c4ccccc4COc4cc(F)ccc43)ccc21 [Example 638] | < 1 | < 0.5 |
| COc1ccc2c(c1)OCc1ccccc1C2=Cc1ccc2[nH]c(=O)[nH]c2c1 [Example 639] | < 10 | < 0.5 |
| Fc1ccc2c(c1)OCc1ccccc1C2=Cc1cccc(C(F)F)c1 [Example 640] | < 0.5 | < 0.5 |
